Tested on: α-glucosidase
Assay: in-vitro assay for anti-diabetic activity (α-glucosidase inhibition)
Assay type: biochemical
Conditions: amount printed without volume or percent inhibition
Text: The structure of compound 1 was established by the study of ^1H-^1H—COSY, HMQC, HMBC and NOESY spectral data (Table 1) as Formula 1.

N=C1NCC(CCNC(=O)c2cc3c(cn2)[nH]c2ccccc23)N1 (stereo not shown) [Tiruchenduramine, tiruchenduramine]
amount at which it inhibits α-glucosidase: 788 µg
